According to paper PMC4254530 (Bioorganic & medicinal chemistry, 2014):

Assays:
CK1a1 = CK1a1 (Homo sapiens, UniProt P48729); test: Kinase selectivity assay CK1a1; format: biochemical; conditions: read-out: CK1a1 % inhibition at 20 μM
CDK4/D1 = CDK4/D1 (Homo sapiens, UniProt P11802); test: Kinase selectivity assay CDK4/D1; format: biochemical; conditions: 20 μM compound, ATP Km 90 μM
full length hCDK5/p25 = full length hCDK5/p25 (Homo sapiens, UniProt Q00535); test: γ-33P ATP filter binding assay, hCDK5/p25; format: biochemical; conditions: for IC50: CDK5/p25 IC50, ATP (Km) 30 μM, Table 5; for inhibition at 50 µM: read-out: CDK5/p25 inhibition @50μM
Sequence of full length hCDK5/p25 (Q00535 whole entry): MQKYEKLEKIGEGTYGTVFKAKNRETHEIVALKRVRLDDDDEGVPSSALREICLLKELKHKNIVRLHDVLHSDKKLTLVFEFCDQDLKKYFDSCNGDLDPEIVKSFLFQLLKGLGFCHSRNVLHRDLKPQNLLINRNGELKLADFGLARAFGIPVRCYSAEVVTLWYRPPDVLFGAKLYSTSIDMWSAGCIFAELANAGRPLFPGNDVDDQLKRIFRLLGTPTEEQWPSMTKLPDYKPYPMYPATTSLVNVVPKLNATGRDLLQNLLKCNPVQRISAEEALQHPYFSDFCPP
Sequence of full length hCDK5/p25 (Q15078 99-307 partner limits assumed): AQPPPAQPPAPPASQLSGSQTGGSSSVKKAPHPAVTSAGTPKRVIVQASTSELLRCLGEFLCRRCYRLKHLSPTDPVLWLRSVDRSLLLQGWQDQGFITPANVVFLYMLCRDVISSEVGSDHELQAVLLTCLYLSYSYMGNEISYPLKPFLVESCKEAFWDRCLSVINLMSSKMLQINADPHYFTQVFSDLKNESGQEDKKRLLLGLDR

DYRK1/DYRK1A = DYRK1/DYRK1A (Homo sapiens, UniProt Q13627); test: Kinase selectivity assay DYRK1/DYRK1A; format: biochemical; conditions: read-out: DYRK1/DYRK1A % inhibition at 20 μM
CDK1/B = CDK1/B (Homo sapiens, UniProt P06493); test: Kinase selectivity assay CDK1/B; format: biochemical
Sequence of CDK1/B (P06493 whole entry): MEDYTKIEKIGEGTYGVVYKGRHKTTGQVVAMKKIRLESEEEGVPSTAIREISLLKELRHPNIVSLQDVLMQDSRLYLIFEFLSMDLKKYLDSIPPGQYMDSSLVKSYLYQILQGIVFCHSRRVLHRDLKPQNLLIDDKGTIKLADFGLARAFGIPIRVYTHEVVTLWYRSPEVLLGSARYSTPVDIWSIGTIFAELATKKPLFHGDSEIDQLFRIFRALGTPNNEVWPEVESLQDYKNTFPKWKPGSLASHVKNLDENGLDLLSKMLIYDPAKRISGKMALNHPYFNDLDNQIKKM
Sequence of CDK1/B (P14635 whole entry partner): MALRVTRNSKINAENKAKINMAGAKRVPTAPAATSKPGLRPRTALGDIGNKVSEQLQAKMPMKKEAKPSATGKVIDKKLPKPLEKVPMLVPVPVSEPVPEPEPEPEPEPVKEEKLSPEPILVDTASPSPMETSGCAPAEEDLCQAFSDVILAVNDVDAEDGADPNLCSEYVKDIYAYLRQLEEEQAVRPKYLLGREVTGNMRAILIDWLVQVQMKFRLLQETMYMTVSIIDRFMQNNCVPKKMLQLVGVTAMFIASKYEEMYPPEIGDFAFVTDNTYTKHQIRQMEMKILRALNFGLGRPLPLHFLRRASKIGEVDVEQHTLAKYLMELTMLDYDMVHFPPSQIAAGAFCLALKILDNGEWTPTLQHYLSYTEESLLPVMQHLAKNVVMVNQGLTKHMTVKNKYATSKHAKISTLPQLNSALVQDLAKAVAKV

CDK2/E = CDK2/E (Homo sapiens, UniProt P24941); test: Kinase selectivity assay CDK2/E; format: biochemical; conditions: read-out: CDK2/E % inhibition at 20 μM
full length hCDK2/E = full length hCDK2/E (Homo sapiens, UniProt P24941); test: γ-33P ATP filter binding assay, hCDK2/E
CDK2/A = CDK2/A (Homo sapiens, UniProt P24941); test: Kinase selectivity assay CDK2/A; format: biochemical; conditions: read-out: CDK2/A % inhibition at 20 μM
PKA = PKA (Homo sapiens, UniProt P17612); test: Kinase selectivity assay PKA; format: biochemical
PKCε = molecular target: T1, PKCε (Homo sapiens, UniProt Q02156); test: Kinase selectivity assay PKCε; format: biochemical; conditions: read-out: PKCε % inhibition at 20 μM
T1 sequence (Q02156 1-737): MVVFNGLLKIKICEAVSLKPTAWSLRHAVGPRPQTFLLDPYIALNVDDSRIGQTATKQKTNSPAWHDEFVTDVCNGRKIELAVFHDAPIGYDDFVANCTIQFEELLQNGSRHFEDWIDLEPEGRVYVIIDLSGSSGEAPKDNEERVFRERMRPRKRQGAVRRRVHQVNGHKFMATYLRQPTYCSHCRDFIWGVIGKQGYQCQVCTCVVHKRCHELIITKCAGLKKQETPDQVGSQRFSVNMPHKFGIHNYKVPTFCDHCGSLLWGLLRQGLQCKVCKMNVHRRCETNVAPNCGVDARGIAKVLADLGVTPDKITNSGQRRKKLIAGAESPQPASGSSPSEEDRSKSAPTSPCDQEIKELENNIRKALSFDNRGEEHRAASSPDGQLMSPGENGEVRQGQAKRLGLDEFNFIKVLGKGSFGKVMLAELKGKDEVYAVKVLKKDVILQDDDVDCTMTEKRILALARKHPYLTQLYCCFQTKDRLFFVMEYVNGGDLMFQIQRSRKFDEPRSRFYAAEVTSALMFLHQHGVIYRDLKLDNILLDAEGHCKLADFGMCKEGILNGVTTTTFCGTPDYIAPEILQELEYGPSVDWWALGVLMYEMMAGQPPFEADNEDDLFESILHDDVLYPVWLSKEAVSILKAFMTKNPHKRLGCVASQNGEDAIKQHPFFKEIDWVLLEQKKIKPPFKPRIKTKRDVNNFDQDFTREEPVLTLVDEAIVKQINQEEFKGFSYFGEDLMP

GSK3α = GSK3α (Homo sapiens, UniProt P49840); test: Kinase selectivity assay GSK3α; format: biochemical; conditions: read-out: GSK3α % inhibition at 20 μM
PKCα = PKCα (Homo sapiens, UniProt P17252); test: Kinase selectivity assay PKCα; format: biochemical
CDK5/p25 = CDK5/p25 (Homo sapiens, UniProt Q00535); test: ATP competitive binding assay; format: biochemical; conditions: IC50 at increasing ATP concentrations, Lineweaver-Burk plot
Sequence of CDK5/p25 (Q00535 whole entry): as the sequence (Q00535 whole entry) above
Sequence of CDK5/p25 (Q15078 99-307 partner limits assumed): as the sequence (Q15078 99-307 partner limits assumed) above

WEE1 = WEE1 (Homo sapiens, UniProt P30291); test: Kinase selectivity assay WEE1; format: biochemical
GSK3β = GSK3β (Homo sapiens, UniProt P49841); test: Kinase selectivity assay GSK3β; format: biochemical; conditions: read-out: GSK3β % inhibition at 20 μM
Sequence of GSK3β (P49841 whole entry): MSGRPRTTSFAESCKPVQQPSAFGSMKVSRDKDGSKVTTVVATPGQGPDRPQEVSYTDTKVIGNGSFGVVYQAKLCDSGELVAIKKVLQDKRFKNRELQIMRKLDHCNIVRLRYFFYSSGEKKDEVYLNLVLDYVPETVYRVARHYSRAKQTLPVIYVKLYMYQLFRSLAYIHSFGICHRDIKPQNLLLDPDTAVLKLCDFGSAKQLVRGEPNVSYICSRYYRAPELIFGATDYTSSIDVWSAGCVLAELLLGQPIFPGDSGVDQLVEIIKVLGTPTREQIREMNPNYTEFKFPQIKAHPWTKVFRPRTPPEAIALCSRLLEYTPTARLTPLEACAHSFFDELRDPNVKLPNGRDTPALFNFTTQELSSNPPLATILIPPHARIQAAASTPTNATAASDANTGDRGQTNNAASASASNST

CDK6/D1 = CDK6/D1 (Homo sapiens, UniProt Q00534); test: Kinase selectivity assay CDK6/D1; format: biochemical; conditions: 20 μM compound, ATP Km 30 μM
Sequence of CDK6/D1 (Q00534 whole entry): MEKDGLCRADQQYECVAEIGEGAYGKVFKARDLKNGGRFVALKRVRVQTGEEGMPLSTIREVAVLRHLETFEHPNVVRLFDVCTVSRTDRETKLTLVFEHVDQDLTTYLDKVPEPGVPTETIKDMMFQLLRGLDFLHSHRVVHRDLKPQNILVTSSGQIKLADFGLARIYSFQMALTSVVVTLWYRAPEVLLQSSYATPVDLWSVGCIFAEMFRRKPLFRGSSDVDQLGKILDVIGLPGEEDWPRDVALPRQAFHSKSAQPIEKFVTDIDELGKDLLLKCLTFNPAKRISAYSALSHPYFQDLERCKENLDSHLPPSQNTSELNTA
Sequence of CDK6/D1 (P24385 whole entry partner): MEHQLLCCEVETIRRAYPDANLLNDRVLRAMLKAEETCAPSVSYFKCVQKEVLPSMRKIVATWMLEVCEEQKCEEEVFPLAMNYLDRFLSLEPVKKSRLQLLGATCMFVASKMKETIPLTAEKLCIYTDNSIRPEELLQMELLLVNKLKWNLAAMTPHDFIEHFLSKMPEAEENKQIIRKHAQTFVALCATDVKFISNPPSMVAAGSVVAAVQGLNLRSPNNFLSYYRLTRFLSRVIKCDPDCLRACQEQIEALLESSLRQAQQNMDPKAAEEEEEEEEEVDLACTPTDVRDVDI

KDR/VEGFR2 = KDR/VEGFR2 (Homo sapiens, UniProt P35968); test: Kinase selectivity assay KDR/VEGFR2; format: biochemical; conditions: read-out: KDR/VEGFR2 % inhibition at 20 μM
Sequence of KDR/VEGFR2 (P35968 20-1356): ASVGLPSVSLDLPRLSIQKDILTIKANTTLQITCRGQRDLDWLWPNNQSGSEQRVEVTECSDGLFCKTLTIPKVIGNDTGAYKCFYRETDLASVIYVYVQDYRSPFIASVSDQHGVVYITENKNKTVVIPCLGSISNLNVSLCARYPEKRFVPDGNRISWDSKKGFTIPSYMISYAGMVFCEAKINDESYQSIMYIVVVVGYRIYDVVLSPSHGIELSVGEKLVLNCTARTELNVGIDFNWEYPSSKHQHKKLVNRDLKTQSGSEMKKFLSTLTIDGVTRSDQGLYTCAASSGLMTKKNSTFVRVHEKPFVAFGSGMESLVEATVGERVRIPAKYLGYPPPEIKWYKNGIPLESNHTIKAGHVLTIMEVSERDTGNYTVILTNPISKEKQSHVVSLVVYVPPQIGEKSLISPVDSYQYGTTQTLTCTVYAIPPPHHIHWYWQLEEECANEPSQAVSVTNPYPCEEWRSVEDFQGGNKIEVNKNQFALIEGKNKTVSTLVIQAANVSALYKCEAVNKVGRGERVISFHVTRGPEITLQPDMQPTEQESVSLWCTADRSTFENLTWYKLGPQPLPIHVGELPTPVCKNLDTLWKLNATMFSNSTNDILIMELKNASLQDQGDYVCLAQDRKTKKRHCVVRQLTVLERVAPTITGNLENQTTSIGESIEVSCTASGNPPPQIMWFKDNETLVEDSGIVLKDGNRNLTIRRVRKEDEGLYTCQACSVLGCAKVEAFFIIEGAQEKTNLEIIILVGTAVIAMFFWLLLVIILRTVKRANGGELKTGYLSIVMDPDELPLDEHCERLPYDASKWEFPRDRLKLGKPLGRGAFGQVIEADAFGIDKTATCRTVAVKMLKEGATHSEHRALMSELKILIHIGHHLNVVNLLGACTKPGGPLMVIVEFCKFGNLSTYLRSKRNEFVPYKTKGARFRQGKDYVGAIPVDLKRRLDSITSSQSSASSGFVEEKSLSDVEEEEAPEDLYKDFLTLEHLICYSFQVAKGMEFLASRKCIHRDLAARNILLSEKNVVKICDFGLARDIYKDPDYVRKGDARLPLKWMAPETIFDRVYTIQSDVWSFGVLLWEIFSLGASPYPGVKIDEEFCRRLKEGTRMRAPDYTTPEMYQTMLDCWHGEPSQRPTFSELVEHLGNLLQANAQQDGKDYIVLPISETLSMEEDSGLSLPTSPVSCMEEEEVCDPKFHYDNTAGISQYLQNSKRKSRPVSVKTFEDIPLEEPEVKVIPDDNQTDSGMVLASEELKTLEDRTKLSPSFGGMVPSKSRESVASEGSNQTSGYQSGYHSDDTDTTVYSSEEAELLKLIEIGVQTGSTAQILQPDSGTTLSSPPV

Sequence of CDK4/D1 (P11802 whole entry): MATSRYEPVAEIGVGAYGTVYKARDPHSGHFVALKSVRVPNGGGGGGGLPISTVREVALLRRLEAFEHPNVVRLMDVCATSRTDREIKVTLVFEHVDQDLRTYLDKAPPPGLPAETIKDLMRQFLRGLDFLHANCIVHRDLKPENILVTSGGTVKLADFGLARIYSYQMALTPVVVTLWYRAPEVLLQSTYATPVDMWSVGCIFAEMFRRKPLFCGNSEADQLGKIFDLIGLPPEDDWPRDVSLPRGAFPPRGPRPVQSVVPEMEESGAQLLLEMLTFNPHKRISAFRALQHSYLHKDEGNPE
Sequence of CDK4/D1 (P24385 whole entry partner): as the sequence (P24385 whole entry partner) above

| SMILES | inhibition at 20 µM (CK1a1) [%] | CDK4/D1 % inhibition at 20 μM (CDK4/D1) | IC50 (full length hCDK5/p25) [µM] | inhibition at 50 µM (full length hCDK5/p25) [%] | inhibition at 20 µM (DYRK1/DYRK1A) [%] | inhibition at 20 µM (CDK2/E) [%] | inhibition at 20 µM (CDK2/A) [%] | inhibition at 20 µM (PKCε) [%] | inhibition at 20 µM (GSK3α) [%] | mode of inhibition with respect to ATP (CDK5/p25) | inhibition at 20 µM (GSK3β) [%] | CDK6/D1 % inhibition at 20 μM (CDK6/D1) | inhibition at 20 µM (KDR/VEGFR2) [%] | also measured |
| --- | --- | --- | --- | --- | --- | --- | --- | --- | --- | --- | --- | --- | --- | --- |
| O=C(Nc1ccccc1C(=O)O)c1cc2c(=O)[nH]c3ccccc3c2s1 [Compound 25s, 2-(4-oxo-4,5-dihydrothieno[3,2-c]quinoline-2-carboxamido)benzoic acid] | 41 | No inhibition | 4.3 | 70.6 | 23 | 5 | 50 | 7 | 79 | ATP non-competitive inhibition | 81 | No inhibition | 88 | CDK1/B % inhibition at 20 μM (CDK1/B; 20 μM compound, ATP Km 5 μM): No inhibition; CDK2/E inhibition @50μM (full length hCDK2/E; 50 μM compound, ATP (Km) 65 μM, Table 5): No inhibition; inhibition at 20 µM (PKA; read-out: PKA % inhibition at 20 μM): 89%; PKCα % inhibition at 20 μM (PKCα; 20 μM compound, ATP Km 10 μM): No inhibition; WEE1 % inhibition at 20 μM (WEE1; 20 μM compound, ATP Km 50 μM): No inhibition |
| O=C(Nc1ccccn1)c1cc2c(Cl)nc3ccccc3c2s1 [Compound 25w, 4-chloro-N-(pyridin-2-yl)thieno[3,2-c]quinoline-2-carboxamide] | 19 | No inhibition | 3.8 | 75.4 | 4 | 6 | 45 | 4 | 22 | ATP non-competitive inhibition | 41 | No inhibition | 44 | inhibition at 20 µM (CDK1/B; read-out: CDK1/B % inhibition at 20 μM): 35%; inhibition at 50 µM (full length hCDK2/E; read-out: CDK2/E inhibition @50μM, 50 μM compound, ATP (Km) 65 μM, Table 5): 21.8%; PKA % inhibition at 20 μM (PKA; 20 μM compound, ATP Km 20 μM): No inhibition; inhibition at 20 µM (PKCα; read-out: PKCα % inhibition at 20 μM): 1%; inhibition at 20 µM (WEE1; read-out: WEE1 % inhibition at 20 μM): 2% |
